Here are results for 2 molecules from patent publication US9518081B2, “Peptide libraries” (BICYCLE THERAPEUTICS LIMITED, priority 2009, dated 2016).

*1 amine or outer side, *2 acyl side, *3 side chain or, on linkers, in order; H or OH if unused. Where a SMILES comes first, the peptide text is derived from it. Bridges are numbered along the chain shown (N, C = ends). TBMB = c1c(C[*:1])cc(C[*:3])cc1C[*:2]

The subject of the data set is chymotrypsin. The experiment in a line: Phage ELISA after DTT reduction and chymotrypsin treatment (resistance to proteolysis). It is filed as in vitro ADME. As to conditions: 5 mM DTT 20 min, chymotrypsin 50 ug/ml 2 min. Here is the method:
0.6 μg/mL of biotinylated MDM2 peptide (res 2-125) was immobilized on a streptavidin-coated plate (Roche). Plate was blocked with PBSM (but 4% in milk powder) and linear or TBMB-conjugated phage (10^7 TU/well in PBSM in the presence or absence of 5 mM DTT) was incubated on the plate for 50 min at room temperature. Similarly, phage was first reduced in 5 mM DTT for 20 min, treated with chymotrypsin (50 ug/ml in PBS) for 2 min, mixed with PBSM (final concentration) and incubated on the plate for 50 min at room temperature. Phage was detected using an anti-M13-HRP monoclonal antibody (1:5000, Amersham).
Note that 5 mM DTT can reduce the disulphide bonds of chymotrypsin leading to its inactivation as a protease. […] In other experiments we have used up to 0.2 mM-5 mM TCEP in the presence of chymotrypsin (0.1 mg/ml-1 mg/ml) for 2 minutes at room temperature in PBS. These conditions also allowed us to distinguish between the linear and cyclic peptides on phage.
On the technique in general: In an ELISA, binding on a coated surface is turned into a signal by an enzyme label.

As to `CC(C)C[C@@H]1NC(=O)[C@H](CCC(=O)O)NC(=O)[C@@H](NC(=O)[C@@H](N)CO)CSCc2cc3cc(c2)CSC[C@H](NC(=O)[C@H](CCCCN)NC(=O)[C@@H]2CCCN2C(=O)[C@H](CC(N)=O)NC(=O)[C@H](Cc2c[nH]c4ccccc24)NC1=O)C(=O)N[C@@H](CCCNC(=N)N)C(=O)N[C@@H](CC(C)C)C(=O)N[C@@H](CO)C(=O)N1CCC[C@H]1C(=O)N[C@@H](Cc1ccccc1)C(=O)N[C@@H](CCC(=O)O)C(=O)N[C@H](C(=O)N[C@@H](CCCCN)C(=O)NCC(=O)O)CSC3` [PEP10] (H-SCELWNPKCRLSPFECKG-OH; linker 2-9-16 via TBMB (inferred)), the “resistance of MDM2 binding to proteolysis” value is on record as “resistant to proteolysis”.
Regarding `CC(C)[C@@H]1NC(=O)[C@@H](NC(=O)[C@@H](N)CO)CSCc2cc3cc(c2)CSC[C@H](NC(=O)[C@H]([C@@H](C)O)NC(=O)[C@H](Cc2c[nH]c4ccccc24)NC(=O)CNC(=O)[C@H](Cc2ccccc2)NC(=O)[C@H](CCCNC(=N)N)NC1=O)C(=O)N[C@@H](CC(=O)O)C(=O)N[C@@H](CC(N)=O)C(=O)N[C@@H](CO)C(=O)N[C@@H](Cc1c[nH]c2ccccc12)C(=O)N[C@@H](Cc1c[nH]cn1)C(=O)NCC(=O)N[C@H](C(=O)N[C@@H](CCCCN)C(=O)NCC(=O)O)CSC3` [PEP48] (H-SCVRFGWTCDNSWHGCKG-OH; linker 2-9-16 via TBMB (inferred)), the “resistance of MDM2 binding to proteolysis” value is “resistant to proteolysis”.
